Patent US20250340538A1, “IMIDAZOLONE DERIVATIVES AS INHIBITORS OF PROTEIN KINASES IN PARTICULAR DYRK1A, CLK1 AND/OR CLK4” (PERHA PHARMACEUTICALS, priority 2021, published 2025)

What was measured:
DYRK1B = biological target: T1, DYRK1B (Homo sapiens, UniProt Q9Y463); assay: Radiometric protein kinase assay (33PanQinase Activity Assay), DYRK1B; assay type: biochemical; details: read-out: IC50 on DYRK1B (most potent DYRK1B inhibitors)
T1 construct: GST-fusion or His-tag (not specified per kinase); purchased ProQinase GmbH; host or cells: Sf9 insect cells or E. coli (not specified per kinase)
T1 sequence (Q9Y463 whole entry, the tested form may be a part): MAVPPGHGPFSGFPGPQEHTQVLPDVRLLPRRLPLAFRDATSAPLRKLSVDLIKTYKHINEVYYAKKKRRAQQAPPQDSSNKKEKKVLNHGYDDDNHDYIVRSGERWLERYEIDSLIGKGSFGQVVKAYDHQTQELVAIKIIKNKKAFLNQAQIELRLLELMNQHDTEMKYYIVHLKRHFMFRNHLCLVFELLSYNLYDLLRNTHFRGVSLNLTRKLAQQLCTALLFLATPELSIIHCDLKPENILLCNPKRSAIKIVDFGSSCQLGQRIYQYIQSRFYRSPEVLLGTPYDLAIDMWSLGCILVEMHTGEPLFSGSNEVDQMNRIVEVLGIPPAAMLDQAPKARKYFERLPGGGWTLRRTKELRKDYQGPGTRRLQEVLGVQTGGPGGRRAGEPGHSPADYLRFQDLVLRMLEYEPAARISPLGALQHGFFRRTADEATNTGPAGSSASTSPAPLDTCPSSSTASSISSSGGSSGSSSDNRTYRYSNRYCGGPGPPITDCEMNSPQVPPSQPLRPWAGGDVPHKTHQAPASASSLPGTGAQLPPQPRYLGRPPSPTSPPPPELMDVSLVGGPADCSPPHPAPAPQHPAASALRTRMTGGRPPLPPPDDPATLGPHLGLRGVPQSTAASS
Description: (§1) Assays were performed by ProQinase GmbH (Engesserstr. 4, D-79108 Freiburg, Germany. www.proqinase.com). The IC50 profile of all compounds was determined using 12 protein kinases (CDK2/cyclin E, CK1ε, CLK1, 2, 3, 4, DYRK1A, 1B, 2, 3, 4, GSK3β).
(§2) The compounds were provided as […] in 100% DMSO. Prior to testing, the 1 μM stock solutions were subjected to a serial, semi-logarithmic dilution using 100% DMSO as a solvent. […] In the process, 90 μl H2O were added to each well of each compound dilution plate. To minimize potential precipitation, the H2O was added to each plate only a few minutes before the transfer of the compound solutions into the assay plates. The plate was shaken thoroughly, resulting in a compound dilution plate/10% DMSO.
(§3) For the assays (see below), 5 μL solution from each well of the compound dilution plates/10% DMSO were transferred into the assay plates. The final volume of the assay was 50 μL. All compounds were tested at 10 final assay concentrations in the range from 10 μM to 30 nM. The final DMSO concentration in the reaction cocktails was 1% in all cases.
(§4) All protein kinases provided by ProQinase were expressed in Sf9 insect cells or in E. coli as recombinant GST-fusion proteins or His-tagged proteins, either as full-length or enzymatically active fragments. All kinases were produced from human cDNAs and purified by either GSH-affinity chromatography or immobilized metal. Affinity tags were removed from a number of kinases during purification. The purity of the protein kinases was examined by SDS-PAGE/Coomassie staining, the identity was checked by mass spectroscopy.
(§5) A radiometric protein kinase assay (33PanQinase® Activity Assay) was used for measuring the kinase activity of the 12 protein kinases. All kinase assays were performed in 96-well FlashPlates™ from PerkinElmer (Boston, MA, USA) in a 50 μL reaction volume. The reaction cocktail was pipetted in four steps in the following order: • 25 μL of assay buffer (standard buffer/[γ-^33P]-ATP), • 10 μL of ATP solution (in H2O), • 5 μL of test compound (in 10% DMSO), • 10 μL of enzyme/substrate mixture.
(§6) The reaction cocktails were incubated at 30° C. for 60 minutes. The reaction was stopped with 50 μL of 2% (v/v) H3PO4, plates were aspirated and washed two times with 200 μL 0.9% (w/v) NaCl. Incorporation of ^33Pi was determined with a microplate scintillation counter (Microbeta, Wallac). The IC50 values for all compounds were calculated from the dose response curves
(§7) As a parameter for assay quality, the Z′-factor (Zhang et al., J. Biomol. Screen. 2: 67-73, 1999) for the low and high controls of each assay plate (n=8) was used. ProQinase's criterion for repetition of an assay plate is a Z′-factor below 0.4 (Iversen et al., J. Biomol. Screen. 3: 247-252, 2006).

DYRK2 = biological target: T2, DYRK2 (Homo sapiens, UniProt Q92630); assay: Radiometric protein kinase assay (33PanQinase Activity Assay), DYRK2; assay type: biochemical; details: read-out: IC50 on DYRK2 (most potent DYRK2 inhibitors)
T2 construct: GST-fusion or His-tag (not specified per kinase); purchased ProQinase GmbH; host or cells: Sf9 insect cells or E. coli (not specified per kinase)
T2 sequence (Q92630 1-601): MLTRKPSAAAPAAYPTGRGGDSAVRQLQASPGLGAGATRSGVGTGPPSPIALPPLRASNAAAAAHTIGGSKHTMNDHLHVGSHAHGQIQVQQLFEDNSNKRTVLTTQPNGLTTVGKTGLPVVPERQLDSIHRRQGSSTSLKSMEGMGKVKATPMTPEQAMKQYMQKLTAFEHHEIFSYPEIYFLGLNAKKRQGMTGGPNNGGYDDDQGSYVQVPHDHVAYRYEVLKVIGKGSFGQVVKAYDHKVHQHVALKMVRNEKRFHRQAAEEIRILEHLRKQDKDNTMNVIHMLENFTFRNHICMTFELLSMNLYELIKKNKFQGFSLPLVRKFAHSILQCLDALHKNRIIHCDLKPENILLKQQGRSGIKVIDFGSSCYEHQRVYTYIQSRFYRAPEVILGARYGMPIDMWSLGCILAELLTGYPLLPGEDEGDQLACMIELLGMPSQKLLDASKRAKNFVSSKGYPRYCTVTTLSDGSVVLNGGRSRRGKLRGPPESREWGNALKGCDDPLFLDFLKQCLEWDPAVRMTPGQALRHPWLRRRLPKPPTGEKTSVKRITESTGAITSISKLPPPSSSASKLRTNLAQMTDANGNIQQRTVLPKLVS
Description: as §1, §2, §3, §4, §5, §6, §7

IC50 (DYRK1B): ≤ 10 nM
IC50 (DYRK2): ≤ 250 nM
SMILES: O=C1NC(NC23CC4CC(CC(O)(C4)C2)C3)=N/C1=C\c1ccc2ncccc2c1 [Compound 50, (4Z)-2-[(3-hydroxy-1-adamantyl)amino]-4-(6-quinolylmethylene)-1H-imidazol-5-one]
